This note sets out measurements from ChEMBL document CHEMBL1140672, “Design, synthesis, and evaluation of isoindolinone-hydroxamic acid derivatives as histone deacetylase (HDAC) inhibitors” (Bioorg Med Chem Lett, 2007).

Activity calls are given as the source filed them. The calls are words filed in the database; no cut-off is given here.

One experiment has as its target Histone deacetylase 1 (Homo sapiens, UniProt Q13547). Kind of experiment: Inhibition of human HDAC1.
The next experiment concerns the target Histone deacetylase 4 (Homo sapiens, UniProt P56524). The experiment is described as follows: Inhibition of human HDAC4.
The target of experiment [1] is T1, Protein deacetylase HDAC6 (Homo sapiens, UniProt Q9UBN7).
T1 sequence (Q9UBN7 whole entry): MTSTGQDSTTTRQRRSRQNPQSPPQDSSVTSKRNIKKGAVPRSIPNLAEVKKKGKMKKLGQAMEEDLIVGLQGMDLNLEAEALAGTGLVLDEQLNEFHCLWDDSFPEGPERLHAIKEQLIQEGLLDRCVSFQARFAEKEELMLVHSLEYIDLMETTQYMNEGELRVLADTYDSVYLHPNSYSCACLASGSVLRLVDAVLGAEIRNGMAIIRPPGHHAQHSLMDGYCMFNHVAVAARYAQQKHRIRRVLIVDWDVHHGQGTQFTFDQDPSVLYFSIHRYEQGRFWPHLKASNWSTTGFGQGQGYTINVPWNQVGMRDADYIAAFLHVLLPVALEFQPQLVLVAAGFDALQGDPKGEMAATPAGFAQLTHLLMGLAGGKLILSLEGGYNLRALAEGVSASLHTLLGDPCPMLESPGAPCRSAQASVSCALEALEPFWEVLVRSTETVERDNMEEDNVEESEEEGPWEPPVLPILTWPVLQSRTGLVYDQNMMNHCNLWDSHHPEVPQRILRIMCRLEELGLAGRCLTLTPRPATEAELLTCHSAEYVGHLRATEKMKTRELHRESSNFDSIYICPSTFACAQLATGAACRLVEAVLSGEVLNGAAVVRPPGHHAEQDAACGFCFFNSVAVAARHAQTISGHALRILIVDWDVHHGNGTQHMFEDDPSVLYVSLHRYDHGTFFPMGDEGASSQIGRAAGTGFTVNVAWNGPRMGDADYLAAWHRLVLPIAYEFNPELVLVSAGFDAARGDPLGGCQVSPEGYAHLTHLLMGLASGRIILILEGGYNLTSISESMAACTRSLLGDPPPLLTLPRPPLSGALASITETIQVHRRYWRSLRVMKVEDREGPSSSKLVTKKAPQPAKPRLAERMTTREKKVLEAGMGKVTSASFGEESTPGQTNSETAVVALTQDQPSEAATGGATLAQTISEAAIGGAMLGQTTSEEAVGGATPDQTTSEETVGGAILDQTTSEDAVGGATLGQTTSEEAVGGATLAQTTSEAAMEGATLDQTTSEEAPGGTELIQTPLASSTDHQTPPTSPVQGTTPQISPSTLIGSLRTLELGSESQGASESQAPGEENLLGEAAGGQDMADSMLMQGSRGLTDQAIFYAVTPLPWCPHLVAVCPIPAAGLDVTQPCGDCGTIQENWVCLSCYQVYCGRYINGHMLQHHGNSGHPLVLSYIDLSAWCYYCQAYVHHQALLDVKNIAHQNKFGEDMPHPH
Kind of experiment: Inhibition of human HDAC6.

Experiment [2] deals with PANC-1. The experiment is described as follows: Increase in p21WAF1/CIP1 gene expression in PANC1 cells after 24 hrs relative to control. The experiment is classed as functional, cell-based. Particulars: Homo sapiens.
The test system of experiment [3] is PANC-1. Kind of experiment: Increase in p21WAF1/CIP1 gene expression in PANC1 cells at 0.1 uM after 48 hrs relative to control. The experiment is classed as functional, cell-based. The conditions noted are these: Homo sapiens.
The subject of experiment [4] is PANC-1. The experiment is described as follows: Increase in p27kip1 gene expression in PANC1 cells after 24 hrs relative to control. In kind it is functional, cell-based. Particulars: Homo sapiens.
Experiment [5] concerns PANC-1. The experiment is described as follows: Increase in p27kip1 gene expression in PANC1 cells after 48 hrs relative to control. In kind it is functional, cell-based. The conditions noted are these: Homo sapiens.
Experiment [6] deals with PANC-1. The experiment is described as follows: Antiproliferative activity against human PANC1 cells. In kind it is functional, cell-based.
The test system of a further experiment is PT-45. Kind of experiment: Antiproliferative activity against human drug-resistant PT45 cells. In kind it is functional, cell-based.
In experiment [7] the test system is PANC-1. Kind of experiment: Increase in p21WAF1/CIP1 gene expression in PANC1 cells 1 uM after 48 hrs relative to control. The experiment is classed as functional, cell-based. The conditions noted are these: Homo sapiens.

Chain of Histone deacetylase 1 (Q13547 whole entry): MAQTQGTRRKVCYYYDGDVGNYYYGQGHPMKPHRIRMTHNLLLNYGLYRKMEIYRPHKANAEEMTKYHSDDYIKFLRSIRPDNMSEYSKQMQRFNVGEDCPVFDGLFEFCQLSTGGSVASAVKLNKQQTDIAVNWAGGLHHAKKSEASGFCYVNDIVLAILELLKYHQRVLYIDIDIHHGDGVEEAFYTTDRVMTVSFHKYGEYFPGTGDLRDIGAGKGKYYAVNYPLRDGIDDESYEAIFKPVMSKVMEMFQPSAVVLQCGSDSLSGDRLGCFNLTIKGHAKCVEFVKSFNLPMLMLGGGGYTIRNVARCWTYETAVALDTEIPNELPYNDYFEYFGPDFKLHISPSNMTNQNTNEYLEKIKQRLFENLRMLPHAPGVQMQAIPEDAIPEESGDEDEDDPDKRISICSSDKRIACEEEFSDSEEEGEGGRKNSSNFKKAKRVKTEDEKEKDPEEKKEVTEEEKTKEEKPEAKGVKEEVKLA
Chain of Histone deacetylase 4 (P56524 whole entry): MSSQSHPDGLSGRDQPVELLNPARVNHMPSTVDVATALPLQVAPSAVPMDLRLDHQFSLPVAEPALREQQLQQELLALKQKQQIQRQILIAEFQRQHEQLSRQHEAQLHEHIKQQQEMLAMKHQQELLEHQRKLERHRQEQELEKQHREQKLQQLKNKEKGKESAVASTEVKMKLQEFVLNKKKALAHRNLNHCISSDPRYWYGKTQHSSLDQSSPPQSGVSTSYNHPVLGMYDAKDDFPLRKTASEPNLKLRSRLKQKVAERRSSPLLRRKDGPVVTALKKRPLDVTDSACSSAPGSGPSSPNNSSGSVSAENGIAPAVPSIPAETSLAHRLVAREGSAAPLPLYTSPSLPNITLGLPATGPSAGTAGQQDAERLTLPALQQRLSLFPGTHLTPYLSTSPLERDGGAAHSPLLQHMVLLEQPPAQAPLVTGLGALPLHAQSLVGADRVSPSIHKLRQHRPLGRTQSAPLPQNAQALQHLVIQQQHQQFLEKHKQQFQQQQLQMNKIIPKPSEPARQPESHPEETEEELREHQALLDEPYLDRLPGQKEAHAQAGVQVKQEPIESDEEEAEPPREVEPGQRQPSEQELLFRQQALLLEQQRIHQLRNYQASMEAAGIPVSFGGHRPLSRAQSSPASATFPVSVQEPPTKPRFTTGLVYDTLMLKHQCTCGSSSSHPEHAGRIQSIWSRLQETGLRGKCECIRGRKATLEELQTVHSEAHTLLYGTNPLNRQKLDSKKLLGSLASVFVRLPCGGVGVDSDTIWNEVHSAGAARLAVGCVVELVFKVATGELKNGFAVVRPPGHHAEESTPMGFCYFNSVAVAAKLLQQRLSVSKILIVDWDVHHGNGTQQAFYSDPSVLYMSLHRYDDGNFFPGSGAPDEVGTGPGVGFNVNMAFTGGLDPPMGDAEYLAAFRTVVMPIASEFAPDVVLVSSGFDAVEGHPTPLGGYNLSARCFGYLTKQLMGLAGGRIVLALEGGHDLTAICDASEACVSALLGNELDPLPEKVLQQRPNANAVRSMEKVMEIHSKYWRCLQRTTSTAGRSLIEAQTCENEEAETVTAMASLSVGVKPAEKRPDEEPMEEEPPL

Broadly, the IC50 is the point on the concentration scale where inhibition reaches its midpoint. The low end stands for higher potency, the high end for lower potency. As to `CC(C)(C)c1ccc(CN2Cc3ccc(/C=C/C(=O)NO)cc3C2=O)cc1`, the values for the IC50 (against Histone deacetylase 1; on Histone deacetylase 4; in experiment [1]) were 230 nM, 180 nM and 990 nM, respectively.
`O=C(CCCCCCC(=O)Nc1ccccc1)NO`: the outcome in the experiment with PANC-1 [2] and with PANC-1 [3] was Active. Also, the result in the experiment with PANC-1 [4] and with PANC-1 [5] was inactive.
Take `O=C(/C=C/c1ccc2c(c1)C(=O)N(Cc1ccc(-c3ccncc3)cc1)C2)NO`: the figures for the half-maximal inhibitory concentration (IC50) (at Histone deacetylase 1; against Histone deacetylase 4; in experiment [1]) were 3300 nM, 2100 nM and 15000 nM, respectively.
As for `O=C(/C=C/c1ccc2c(c1)C(=O)N(Cc1ccccc1)C2)NO`, the figures for the IC50 (at Histone deacetylase 1; on Histone deacetylase 4; in [1]) were 250 nM, 220 nM and 230 nM, respectively.
Regarding `O=C(/C=C/c1ccc2c(c1)C(=O)N(Cc1ccc(-c3ccccc3)cc1)C2)NO`, the IC50 at Histone deacetylase 1 stood at 220 nM; against Histone deacetylase 4 it was 98 nM; in [1] it was 750 nM; with PANC-1 [6], 150 nM; in the experiment on PT-45, 300 nM.
With `O=C(/C=C/c1ccc2c(c1)C(=O)N(Cc1ccc(-c3cccnc3)cc1)C2)NO`, the IC50 on Histone deacetylase 1 was 92 nM; against Histone deacetylase 4, 56 nM; in experiment [1], 280 nM; with PANC-1 [6], 35 nM; with PT-45, 200 nM. Further, the outcome in the experiment with PANC-1 [3] and in the experiment on PANC-1 [7] was Active. For the same compound, the result with PANC-1 [4] and with PANC-1 [5] was inactive.
